# Test results as given in US12440487B2, “Method of normalizing the neutrophil to lymphocyte ratio in cancer patients with a selective glucocorticoid receptor antagonist” (Corcept Therapeutics Incorporated, priority 2019, dated 2025).
# Values joined by “and” are separate entries in the source; they are usually repeats but may differ in a detail not shown here. Equal entries are not always repeated. “Also recorded” adds a separate entry of the source.
# What was measured:
# [1] = tested on: neutrophil or lymphocyte abundance in the blood; settings: healthy men / healthy subjects; cited from earlier work
# [2] = molecular target: glucocorticoid receptor (GR) (Homo sapiens, UniProt P04150); settings: binds to GR, PR and AR; cited from earlier work
# [3] = tested on: neutrophil-to-lymphocyte ratio (NLR); assay: Prednisone-challenge NLR study in healthy subjects (NCT03508635, SAD and MAD cohorts); type: in vivo, human
# Description: Methods: Lymphocyte and neutrophil abundance were determined using standard differential complete blood count tests.
# (§1) Healthy subjects were enrolled in the NCT03508635 study of relacorilant. […] (C) is the Figure legend.
# (§2) The intensive NLR sampling was conducted at time 0 (morning, pre-dose) and then 2, 4, 8, 12, and 24 hours thereafter. The single NLR samples were collected in the in the morning, pre-dose. The SAD portion of this experiment used a 500 mg dose while the MAD used a once daily 250 mg dose.
# (§3) Blood was also drawn in the morning, pre-dose.
# progesterone receptor = molecular target: T1, progesterone receptor (Homo sapiens, UniProt P06401); settings: cited from earlier work
# T1 sequence (P06401 1-933): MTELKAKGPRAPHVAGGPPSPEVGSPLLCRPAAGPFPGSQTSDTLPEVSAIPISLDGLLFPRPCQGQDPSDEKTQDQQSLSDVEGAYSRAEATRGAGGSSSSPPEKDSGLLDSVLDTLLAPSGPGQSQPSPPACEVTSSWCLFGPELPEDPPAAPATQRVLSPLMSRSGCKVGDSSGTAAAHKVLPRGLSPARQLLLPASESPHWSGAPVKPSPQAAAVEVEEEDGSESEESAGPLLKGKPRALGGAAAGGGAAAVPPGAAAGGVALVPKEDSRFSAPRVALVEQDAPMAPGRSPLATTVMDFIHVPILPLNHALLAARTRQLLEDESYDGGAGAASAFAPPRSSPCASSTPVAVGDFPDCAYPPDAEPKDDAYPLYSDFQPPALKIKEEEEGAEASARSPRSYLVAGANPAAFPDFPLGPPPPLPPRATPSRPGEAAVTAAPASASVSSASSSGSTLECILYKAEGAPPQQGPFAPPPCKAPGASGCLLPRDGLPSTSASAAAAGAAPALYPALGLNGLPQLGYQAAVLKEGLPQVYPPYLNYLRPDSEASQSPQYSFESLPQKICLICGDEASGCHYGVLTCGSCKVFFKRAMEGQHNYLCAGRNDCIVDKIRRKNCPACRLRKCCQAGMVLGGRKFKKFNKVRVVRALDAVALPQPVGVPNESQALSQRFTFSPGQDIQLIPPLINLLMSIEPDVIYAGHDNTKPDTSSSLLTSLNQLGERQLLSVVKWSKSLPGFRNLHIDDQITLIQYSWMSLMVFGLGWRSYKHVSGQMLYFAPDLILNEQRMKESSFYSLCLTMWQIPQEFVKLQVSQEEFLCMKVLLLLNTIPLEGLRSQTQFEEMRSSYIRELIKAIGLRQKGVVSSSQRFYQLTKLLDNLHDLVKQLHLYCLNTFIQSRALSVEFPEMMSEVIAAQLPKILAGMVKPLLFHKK
# [4] = tested on: neutrophil-to-lymphocyte ratio (NLR); assay: Relacorilant alone, NLR in healthy subjects (NCT03508635); type: in vivo, human; settings: 250 mg for 14 continuous days, cohort of 7 healthy subjects, none with baseline NLR greater than 3
# Description: as §1, §2, §3
# The normalization of the NLR by relacorilant is thought to occur through antagonism of endogenous cortisol. If patients have elevated cortisol activity, relacorilant would be expected to normalize this activity. Alternatively, relacorilant alone could cause neutropenia (reduction in neutrophils) or lymphocytosis (increase in lymphocytes) via antagonism of normal endogenous cortisol. To distinguish these two possibilities, we assessed the effects of relacorilant alone in healthy subject with normal endogenous cortisol. After 14 administering 250 mg of relacorilant for 14 continuous days, no change in the NLR was observed across a cohort of 7 healthy subjects (FIG. 7).
# [5] = tested on: neutrophil-to-lymphocyte ratio (NLR); assay: 7-day single-agent relacorilant lead-in, NLR in patients with advanced solid tumors (NCT02762981); type: in vivo, human; settings: for patients who experienced a decrease in NLR / average change in NLR: 7-day relacorilant lead-in
# Description: The relacorilant lead-in included daily dosing of relacorilant alone (without nab-paclitaxel) for 7 days.
# Drug concentrations were determined in study NCT02762981. Blood was collected at multiple timepoints on day 7 of relacorilant dosing. Upon collection, blood was chelated with EDTA, centrifuged, and plasma was aliquoted. Bioanalytical analyses were conducted by MicroConstants (San Diego, CA, USA). In brief, human plasma samples containing relacorilant and its stable-labeled analog as an internal standard and K3EDTA as the anticoagulant were buffered with an ammonium citrate solution and extracted with 2-butanol:hexane (2.5:97.5, v/v). The samples were vortex mixed, centrifuged and the lower portion was frozen in an ultra-cold freezer. The organic portion was transferred to a clean tube and evaporated under nitrogen. The extracts were dried, reconstituted and analyzed by reversed-phase HPLC using an ACE UltraCore SuperPhenylHexyl column. The mobile phase was nebulized using heated nitrogen in a Z-spray source/interface set to electrospray positive ionization mode. The ionized compounds were detected using MS/MS.
# as §3
# Sequence of glucocorticoid receptor (GR) (P04150 whole entry, species assumed): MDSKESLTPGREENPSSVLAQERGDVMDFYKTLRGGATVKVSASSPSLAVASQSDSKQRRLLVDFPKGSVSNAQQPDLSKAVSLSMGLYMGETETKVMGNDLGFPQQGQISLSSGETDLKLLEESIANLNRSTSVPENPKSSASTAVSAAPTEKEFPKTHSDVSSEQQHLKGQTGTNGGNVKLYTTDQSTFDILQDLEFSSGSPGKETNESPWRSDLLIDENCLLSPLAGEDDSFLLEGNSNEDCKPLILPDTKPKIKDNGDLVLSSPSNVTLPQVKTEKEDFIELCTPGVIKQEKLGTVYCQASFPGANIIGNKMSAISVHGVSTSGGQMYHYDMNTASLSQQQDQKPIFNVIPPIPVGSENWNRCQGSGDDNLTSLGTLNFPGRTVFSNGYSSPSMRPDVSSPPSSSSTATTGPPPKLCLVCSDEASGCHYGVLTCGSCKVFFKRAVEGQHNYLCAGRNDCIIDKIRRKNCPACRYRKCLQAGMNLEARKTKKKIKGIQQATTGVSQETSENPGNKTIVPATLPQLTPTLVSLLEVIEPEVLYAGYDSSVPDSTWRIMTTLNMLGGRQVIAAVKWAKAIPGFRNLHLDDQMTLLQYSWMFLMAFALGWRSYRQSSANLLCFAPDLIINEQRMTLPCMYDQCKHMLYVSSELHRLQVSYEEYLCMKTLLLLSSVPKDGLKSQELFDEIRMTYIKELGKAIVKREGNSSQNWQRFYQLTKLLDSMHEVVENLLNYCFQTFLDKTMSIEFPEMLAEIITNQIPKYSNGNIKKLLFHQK
smiles,measurement,setting,value
"CC#C[C@]1(O)CC[C@H]2[C@@H]3CCC4=CC(=O)CCC4=C3[C@@H](c3ccc(N(C)C)cc3)C[C@@]21C [mifepristone, 11β-(4-dimethylaminophenyl)-17β-hydroxy-17α-(1-propynyl)-estra-4,9-dien-3-one]",effect on neutrophil or lymphocyte abundance in the blood,[1],does not alter
same,selectivity for GR,[2],not selective
"C[C@]12C=CC(=O)C=C1CC[C@@H]1[C@@H]2C(=O)C[C@@]2(C)[C@H]1CC[C@]2(O)C(=O)CO [prednisone, 17α,21-dihydroxypregna-1,4-diene-3,11,20-trione, reference compound]",NLR area under the curve,"[3]; 25 mg prednisone after 14 consecutive days of placebo, different subjects",72 NLR*hr
same,NLR at 8 hours post prednisone,"[3]; 9 healthy subjects, single dose 25 mg prednisone, baseline less than 2, returned to baseline after 24 hours",greater than 6
same,NLR area under the curve,"[3]; MAD cohort, 25 mg prednisone alone, same subjects on Day −5",61.7 NLR*hr
same,NLR area under the curve,"[3]; SAD cohort, 25 mg prednisone alone",54.6 NLR*hr
same,acute increase of the neutrophil-to-lymphocyte ratio (NLR),"[3]; healthy subjects (n=9), 25 mg prednisone",4.7 fold
"Cn1cc(S(=O)(=O)N2CCC3=Cc4c(cnn4-c4ccc(F)cc4)C[C@]3(C(=O)c3cc(C(F)(F)F)ccn3)C2)cn1 [relacorilant, (R)-(1-(4-fluorophenyl)-6-((1-methyl-1H-pyrazol-4-yl)sulfonyl)-4,4a,5,6,7,8-hexahydro-1H-pyrazolo[3,4-g]isoquinolin-4a-yl)(4-(trifluoromethyl)pyridin-2-yl)methanone]",antagonism of the progesterone receptor,progesterone receptor,does not antagonize
same,change in the NLR with relacorilant alone,[4],no change; also recorded: does not change
same,effect on prednisone-induced NLR increase,"[3]; 14 consecutive days of 250 mg/day relacorilant, then 25 mg prednisone, healthy subjects",significantly blunted; also recorded: reversed the effects
same,NLR area under the curve,"[3]; MAD cohort, 25 mg prednisone after 14 consecutive days of 250 mg/day relacorilant",9.6 NLR*hr
same,NLR area under the curve,"[3]; SAD cohort, single 500 mg dose relacorilant administered with 25 mg prednisone",12.5 NLR*hr
same,effect on prednisone-induced NLR increase,"[3]; relacorilant co-administration with 25 mg prednisone, healthy subjects (n=9)",reversed this effect
same,effect on prednisone-induced NLR increase,"[3]; single 500 mg dose relacorilant with 25 mg prednisone, healthy subjects",significantly blunted; also recorded: reversed the effects
same,patients who experienced a decrease in NLR,[5]; patients with AUC between 2011-8000 ng*hr/ml (6/13),46%
same,average change in NLR,[5]; patients with AUC between 3740-8000 ng*hr/ml,−6.1%
same,patients who experienced a decrease in NLR,[5]; patients with AUC<2011 ng*hr/ml or Cmax<442 ng/ml,None
same,patients who experienced a decrease in NLR,[5]; patients with Cmax between 442-1000 ng/ml (6/9),67%
same,average change in NLR,[5]; patients with Cmax between 595-836 ng/ml,−4.4%
same,NLR change from baseline (CfB),"[5]; ovarian cancer patient 038-4004, 7-day relacorilant lead-in",−46% and −55%
same,NLR after relacorilant lead-in,"[5]; ovarian cancer patient 038-4004, 7-day relacorilant lead-in, NLR before 5.5",2.5
